Measurements as given in PubChem BioAssay AID1963846 (Molecular Pharmacology Branch, DTP, NCI, 2024).

Tested on: 454973-116-R2-J3-PDC complex spheroid viability
Assay: Anticancer human tumor 454973-116-R2-J3-PDC patient-derived pancreatic carcinoma cell line growth inhibition [POLQ]
Conditions: for IC50: curve of first compound; for viability, T/C: stronger effect = lower value; active means viability on the fitted dose curve at most 10% of control; inactive means the rest
How it was run: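 Patient-derived tumour cells were co-cultured with HUVEC and mesenchymal stem cells as multicellular spheroids at 37 °C. They were treated with POLQ inhibitors (novobiocin, ART-558, RP6685) alone or combined with other agents. Top concentrations were at or near clinical Cmax (otherwise 10 microM; SN-38 at 1 microM), decreasing in half-log steps.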

[1] = second compound 0.0316 µM, first compound 0.0316 µM
[2] = second compound 0.0316 µM, first compound 0.1 µM
[3] = second compound 0.0316 µM, first compound 0.316 µM
[4] = second compound 0.0316 µM, first compound 1 µM
[5] = second compound 0.0316 µM, first compound 3.16 µM
[6] = second compound 0.0316 µM, first compound 10 µM
[7] = second compound 0.1 µM, first compound 0.0316 µM
[8] = second compound 0.1 µM, first compound 0.1 µM
[9] = second compound 0.1 µM, first compound 0.316 µM
[10] = second compound 0.1 µM, first compound 1 µM
[11] = second compound 0.1 µM, first compound 3.16 µM
[12] = second compound 0.1 µM, first compound 10 µM
[13] = second compound 0.316 µM, first compound 0.0316 µM
[14] = second compound 0.316 µM, first compound 0.1 µM
[15] = second compound 0.316 µM, first compound 0.316 µM
[16] = second compound 0.316 µM, first compound 1 µM
[17] = second compound 0.316 µM, first compound 3.16 µM
[18] = second compound 0.316 µM, first compound 10 µM
[19] = second compound 1 µM, first compound 0.0316 µM
[20] = second compound 1 µM, first compound 0.1 µM
[21] = second compound 1 µM, first compound 0.316 µM
[22] = second compound 1 µM, first compound 1 µM
[23] = second compound 1 µM, first compound 3.16 µM
[24] = second compound 1 µM, first compound 10 µM
[25] = second compound 3.16 µM, first compound 0.0316 µM
[26] = second compound 3.16 µM, first compound 0.1 µM
[27] = second compound 3.16 µM, first compound 0.316 µM
[28] = second compound 3.16 µM, first compound 1 µM
[29] = second compound 3.16 µM, first compound 3.16 µM
[30] = second compound 3.16 µM, first compound 10 µM
[31] = second compound 10 µM, first compound 0.0316 µM
[32] = second compound 10 µM, first compound 0.1 µM
[33] = second compound 10 µM, first compound 0.316 µM
[34] = second compound 10 µM, first compound 1 µM
[35] = second compound 10 µM, first compound 3.16 µM
[36] = second compound 10 µM, first compound 10 µM
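Further: spheroids exposed to drugs for seven days before measurement.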
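Wherever viability, T/C is given: percent viability relative to DMSO vehicle control wells taken as 100%.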

C#Cc1c(F)ccc2cc(O)cc(-c3ncc4c(N5CC6CCC(C5)N6)nc(OCC56CCCN5CC(F)C6)nc4c3F)c12 (stereo not given) + Cc1cccc(N(C)C(=O)C2C(O)CCN2c2nc(C)cc(C(F)(F)F)c2C#N)c1
60.6 nM: IC50 (second compound 1 µM)
72.8 nM: IC50 (second compound 0.316 µM)
inactive: viability, T/C [1] 60.8% | viability, T/C [2] 44.5% | viability, T/C [3] 32.2% | viability, T/C [4] 25.6% | viability, T/C [5] 23% | viability, T/C [6] 19.5% | viability, T/C [7] 65.3% | viability, T/C [8] 43.8% | viability, T/C [9] 32.6% | viability, T/C [10] 30.1% | viability, T/C [11] 26.5% | viability, T/C [12] 26.6% | viability, T/C [13] 66.6% | viability, T/C [14] 44.4% | viability, T/C [15] 32.8% | viability, T/C [16] 27.9% | viability, T/C [17] 23.2% | viability, T/C [18] 28.9% | viability, T/C [19] 56% | viability, T/C [20] 45.3% | viability, T/C [21] 31.9% | viability, T/C [22] 25.2% | viability, T/C [23] 26.5% | viability, T/C [24] 25.3% | viability, T/C [25] 52.9% | viability, T/C [26] 44.5% | viability, T/C [27] 35.1% | viability, T/C [28] 23.9% | viability, T/C [29] 28.2% | viability, T/C [30] 24.4% | viability, T/C [31] 50% | viability, T/C [32] 38.5% | viability, T/C [33] 36% | viability, T/C [34] 31.8% | viability, T/C [35] 29.1% | viability, T/C [36] 23.7%
71.1 nM: IC50 (second compound 0.1 µM)
47.6 nM: IC50 (second compound 3.16 µM)
< 31.6 nM: IC50 (second compound 10 µM)
66.3 nM: IC50 (second compound 0.0316 µM)

CC1COCCN1c1cc(C2(O)CC3CCC(C2)O3)c2cnn(-c3ccn[nH]3)c2n1 (stereo not given) + Cc1cccc(N(C)C(=O)C2C(O)CCN2c2nc(C)cc(C(F)(F)F)c2C#N)c1
163 nM: IC50 (second compound 10 µM)
199 nM: IC50 (second compound 0.316 µM)
inactive: viability, T/C [1] 91.2% | viability, T/C [2] 70% | viability, T/C [3] 33.4% | viability, T/C [4] 22.8% | viability, T/C [5] 20.6% | viability, T/C [6] 13.2% | viability, T/C [7] 90.6% | viability, T/C [8] 80.9% | viability, T/C [9] 33.5% | viability, T/C [10] 20.6% | viability, T/C [11] 21.5% | viability, T/C [12] 15.5% | viability, T/C [13] 93.9% | viability, T/C [14] 73.1% | viability, T/C [15] 34.3% | viability, T/C [16] 21.2% | viability, T/C [17] 22.8% | viability, T/C [18] 15.8% | viability, T/C [19] 102% | viability, T/C [20] 73% | viability, T/C [21] 33% | viability, T/C [22] 21.9% | viability, T/C [23] 20.1% | viability, T/C [24] 14.5% | viability, T/C [25] 98.5% | viability, T/C [26] 67.6% | viability, T/C [27] 34.7% | viability, T/C [28] 16.8% | viability, T/C [29] 26% | viability, T/C [30] 16.2% | viability, T/C [31] 105% | viability, T/C [32] 60.5% | viability, T/C [33] 36.7% | viability, T/C [34] 21.4% | viability, T/C [35] 28.3% | viability, T/C [36] 17.2%
196 nM: IC50 (second compound 1 µM)
182 nM: IC50 (second compound 3.16 µM)
190 nM: IC50 (second compound 0.0316 µM)
212 nM: IC50 (second compound 0.1 µM)

COc1cc(C2c3cc4c(cc3C(OC3OC5COC(C)OC5C(O)C3O)C3COC(=O)C23)OCO4)cc(OC)c1O (stereo not given) + Nc1ccc(C#CCN(C(=O)Cc2ncc(C(F)(F)F)cc2C(F)(F)F)c2ccc(F)cc2)nn1
934 nM: IC50 (second compound 0.0316 µM)
775 nM: IC50 (second compound 3.16 µM)
inactive: viability, T/C [1] 98.2% | viability, T/C [2] 94.3% | viability, T/C [3] 78.4% | viability, T/C [4] 50.9% | viability, T/C [5] 14.2% | viability, T/C [7] 107% | viability, T/C [8] 102% | viability, T/C [9] 84.1% | viability, T/C [10] 49.8% | viability, T/C [11] 12.3% | viability, T/C [13] 98.5% | viability, T/C [14] 106% | viability, T/C [15] 82.7% | viability, T/C [16] 42.6% | viability, T/C [17] 15.1% | viability, T/C [19] 112% | viability, T/C [20] 94.6% | viability, T/C [21] 79.1% | viability, T/C [22] 44.3% | viability, T/C [23] 12.8% | viability, T/C [25] 107% | viability, T/C [26] 109% | viability, T/C [27] 80.3% | viability, T/C [28] 42% | viability, T/C [29] 12.3% | viability, T/C [31] 115% | viability, T/C [32] 104% | viability, T/C [33] 79.3% | viability, T/C [34] 43.5% | viability, T/C [35] 10.6%
785 nM: IC50 (second compound 1 µM)
771 nM: IC50 (second compound 10 µM)
817 nM: IC50 (second compound 0.316 µM)
active: viability, T/C [6] 8.22% | viability, T/C [12] 7.75% | viability, T/C [18] 5.73% | viability, T/C [24] 7.26% | viability, T/C [30] 5.16% | viability, T/C [36] 5.67%
923 nM: IC50 (second compound 0.1 µM)

COc1cccc2c1C(=O)c1c(O)c3c(c(O)c1C2=O)CC(O)(C(=O)CO)CC3OC1CC(N)C(O)C(C)O1 (stereo not given) + Nc1ccc(C#CCN(C(=O)Cc2ncc(C(F)(F)F)cc2C(F)(F)F)c2ccc(F)cc2)nn1
active: viability, T/C [4] 5.05% | viability, T/C [5] 0.67% | viability, T/C [6] 0.12% | viability, T/C [10] 6.06% | viability, T/C [11] 1.06% | viability, T/C [12] 0.39% | viability, T/C [15] 11.7% | viability, T/C [16] 4.87% | viability, T/C [17] 0.69% | viability, T/C [18] 0.21% | viability, T/C [22] 4.25% | viability, T/C [23] 0.36% | viability, T/C [24] 0.66% | viability, T/C [27] 14.6% | viability, T/C [28] 3.6% | viability, T/C [29] 0.55% | viability, T/C [30] 0.26% | viability, T/C [33] 10.2% | viability, T/C [34] 3.36% | viability, T/C [35] 0.54% | viability, T/C [36] 0.27%
< 31.6 nM: IC50 (second compound 0.316 µM) | IC50 (second compound 1 µM) | IC50 (second compound 10 µM)
37.4 nM: IC50 (second compound 0.0316 µM)
32.2 nM: IC50 (second compound 3.16 µM)
inactive: viability, T/C [1] 55.6% | viability, T/C [2] 19.3% | viability, T/C [3] 15.8% | viability, T/C [7] 54.4% | viability, T/C [8] 20.7% | viability, T/C [9] 14.5% | viability, T/C [13] 50.5% | viability, T/C [14] 20.4% | viability, T/C [19] 49.6% | viability, T/C [20] 19.9% | viability, T/C [21] 16.4% | viability, T/C [25] 51.6% | viability, T/C [26] 17.8% | viability, T/C [31] 48.2% | viability, T/C [32] 12.7%
36 nM: IC50 (second compound 0.1 µM)

O=c1[nH]cc(F)c(=O)[nH]1 + Nc1ccc(C#CCN(C(=O)Cc2ncc(C(F)(F)F)cc2C(F)(F)F)c2ccc(F)cc2)nn1
1310 nM: IC50 (second compound 1 µM)
1740 nM: IC50 (second compound 0.1 µM)
inactive: viability, T/C [1] 108% | viability, T/C [2] 116% | viability, T/C [3] 102% | viability, T/C [4] 67% | viability, T/C [5] 28.6% | viability, T/C [6] 33.2% | viability, T/C [7] 105% | viability, T/C [8] 103% | viability, T/C [9] 97.4% | viability, T/C [10] 69.2% | viability, T/C [11] 27.2% | viability, T/C [12] 30.2% | viability, T/C [13] 107% | viability, T/C [14] 106% | viability, T/C [15] 103% | viability, T/C [16] 71% | viability, T/C [17] 29.2% | viability, T/C [18] 33.9% | viability, T/C [19] 108% | viability, T/C [20] 102% | viability, T/C [21] 109% | viability, T/C [22] 56.1% | viability, T/C [23] 28.1% | viability, T/C [24] 32.1% | viability, T/C [25] 120% | viability, T/C [26] 117% | viability, T/C [27] 106% | viability, T/C [28] 63.5% | viability, T/C [29] 25.4% | viability, T/C [30] 32.5% | viability, T/C [31] 119% | viability, T/C [32] 118% | viability, T/C [33] 115% | viability, T/C [34] 63.7% | viability, T/C [35] 24.3% | viability, T/C [36] 31.1%
1550 nM: IC50 (second compound 3.16 µM) | IC50 (second compound 10 µM)
1850 nM: IC50 (second compound 0.316 µM)
1730 nM: IC50 (second compound 0.0316 µM)
